Results reported in PubChem BioAssay (NCI).
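These data come from cells grown in 96-well plates and exposed to compound for 48 hours at five concentrations. Abbreviation: GI50, concentration required for 50% inhibition of growth. TGI: total growth inhibition.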

Tests used:
Experiment in all cases: NCI anticancer screen, dose series, 48 h
[1] = tested on: SK-OV-3 ovarian
[2] = tested on: TK-10 renal
[3] = tested on: U251 CNS
[4] = tested on: NCI/ADR-RES ovarian
[5] = tested on: SF-295 CNS
[6] = tested on: SF-539 CNS
[7] = tested on: EKVX NSCLC
[8] = tested on: SW-620 colon
[9] = tested on: SF-268 CNS
[10] = tested on: SK-MEL-28 melanoma

SMILES | TGI [1] [µM] | TGI [2] [µM] | TGI [3] [µM] | TGI [4] [µM] | TGI [5] [µM] | TGI [6] [µM] | TGI [7] [µM] | TGI [8] [µM] | TGI [9] [µM] | TGI [10] [µM] | GI50 [1] [µM] | GI50 [2] [µM] | GI50 [3] [µM] | GI50 [4] [µM] | GI50 [5] [µM] | GI50 [6] [µM] | GI50 [7] [µM] | GI50 [8] [µM] | GI50 [9] [µM] | GI50 [10] [µM]
C=C(C)C(=O)OC1C[C@H](COC(C)=O)C2CC=C(CO)C2C2OC(=O)C(=C)[C@H]12 (stereo not given in full) | > 100 | > 100 | > 100 | > 100 | > 100 | > 100 | > 100 | 40 | 60.2 | > 100 | – | – | – | – | – | – | – | – | – | –
COc1ccc(/C=C/C(=O)Oc2ccccc2OC)cc1 | > 100 | > 100 | > 100 | > 68.3 | 10.7 | > 100 | > 100 | > 100 | 4.71 | > 100 | – | – | – | – | – | – | – | – | – | –
C[C@H]1O[C@@H](C(C)(C)C)OC(=O)[C@@H]1C(OC(=O)c1ccccc1)c1cccc2ccccc12 (stereo not given in full) | > 100 | > 100 | > 100 | > 100 | > 100 | > 100 | > 100 | > 100 | > 100 | > 100 | – | – | – | – | – | – | – | – | – | –
O=C(Nc1ccc2cc3ccccc3cc2c1)c1cc2c(cc1Cl)Sc1nccn1S2(=O)=O | > 100 | 70.7 | > 100 | > 100 | > 100 | 33.8 | > 100 | > 100 | 97.6 | > 100 | – | – | – | – | – | – | – | – | – | –
C=CC[C@]1(C2=NC(C)(C)CO2)c2ccccc2-c2ccccc2[C@H]1C(C)=O | > 54.9 | 34.4 | 21.6 | 22.7 | 19.1 | 25.1 | 40.6 | 34.4 | 29.3 | > 54.5 | – | – | – | – | – | – | – | – | – | –
COCOc1cc(OC)ccc1C/C(=N/O)C(=O)OC | > 100 | > 100 | > 100 | > 100 | > 100 | > 100 | > 100 | > 100 | > 100 | > 100 | – | – | – | – | – | – | – | – | – | –
NCCNC(=O)CN(CC(=O)O)C1CCCCC1N(CC(=O)O)CC(=O)O (stereo not given) | > 100 | > 100 | > 100 | > 100 | > 100 | > 100 | > 100 | > 100 | > 100 | > 100 | – | – | – | – | – | – | – | – | – | –
CCOC(=O)/C=C(/C(=O)OCC)n1ccc(=O)n(Cc2cnnn2CCCCOC(C)=O)c1=O | > 100 | > 100 | > 100 | > 100 | > 100 | > 100 | > 100 | 43.2 | > 100 | > 100 | – | – | – | – | – | – | – | – | – | –
C/C(O)=C(\C=NC(=S)c1ccncc1)C(=O)Nc1ccccc1C | > 100 | > 100 | > 100 | > 100 | > 100 | > 100 | > 100 | > 100 | > 100 | > 100 | – | – | – | – | – | – | – | – | – | –
NS(=O)(=O)c1nnc(NS(=O)(=O)c2ccc([N+](=O)[O-])cc2)s1 | > 100 | > 100 | > 100 | > 100 | > 100 | > 100 | > 100 | > 100 | > 100 | > 100 | – | – | – | – | – | – | – | – | – | –
C[n+]1cn(-c2nc3ccccc3nc2[N-]S(=O)(=O)c2ccccc2)c2ccccc21 | > 100 | > 100 | > 100 | > 100 | > 100 | > 100 | > 100 | > 100 | > 100 | > 100 | – | – | – | – | – | – | – | – | – | –
Cc1nc(Nc2ccc(Cl)c(Cl)c2)sc1C(=O)/C=C/c1ccc2c(c1)OCO2 | 33.6 | 53.6 | 49 | > 100 | 45.6 | 61.7 | 87.2 | > 100 | 64 | 86.9 | – | – | – | – | – | – | – | – | – | –
O=C(NC1(C(=O)O)CCCC1)c1ccccc1 | > 100 | > 100 | > 100 | > 100 | > 100 | > 100 | > 100 | > 100 | > 100 | > 100 | – | – | – | – | – | – | – | – | – | –
CN(C)c1ccc(/C=C(\NC(=O)c2ccccc2)C(=O)NC(Cc2c[nH]c3ccccc23)C(=O)O)cc1 (stereo not given) | > 100 | > 100 | > 100 | > 100 | > 100 | > 100 | > 100 | > 100 | > 100 | > 100 | – | – | – | – | – | – | – | – | – | –
COc1ccccc1C1C(C#N)=C(N)Oc2cc(O)ccc21 (stereo not given) | 44.6 | > 100 | 62.6 | 68.2 | 80.6 | 66 | > 100 | > 100 | 91 | 86.1 | 16.8 | 27.6 | 19.8 | 8.56 | 16 | 24.7 | 34.6 | 29.1 | 19.4 | 25
Cc1ccc(C(=O)N/N=C2/C(=O)c3c4ccccc4cc4cccc2c34)cc1 | > 75.9 | > 100 | > 67.3 | > 91.2 | 43.2 | > 92.9 | > 100 | > 100 | 88.2 | 97.4 | – | – | – | – | – | – | – | – | – | –
